Assay results published in PMC6332036, “The Guareschi Pyridine Scaffold as a Valuable Platform for the Identification of Selective PI3K Inhibitors” (Molecules, 2015).

Molecular target: T1, PI3Kα (Homo sapiens, UniProt P42336)
T1 construct: purchased JenaBioscience PR-335
T1 sequence (P42336 whole entry): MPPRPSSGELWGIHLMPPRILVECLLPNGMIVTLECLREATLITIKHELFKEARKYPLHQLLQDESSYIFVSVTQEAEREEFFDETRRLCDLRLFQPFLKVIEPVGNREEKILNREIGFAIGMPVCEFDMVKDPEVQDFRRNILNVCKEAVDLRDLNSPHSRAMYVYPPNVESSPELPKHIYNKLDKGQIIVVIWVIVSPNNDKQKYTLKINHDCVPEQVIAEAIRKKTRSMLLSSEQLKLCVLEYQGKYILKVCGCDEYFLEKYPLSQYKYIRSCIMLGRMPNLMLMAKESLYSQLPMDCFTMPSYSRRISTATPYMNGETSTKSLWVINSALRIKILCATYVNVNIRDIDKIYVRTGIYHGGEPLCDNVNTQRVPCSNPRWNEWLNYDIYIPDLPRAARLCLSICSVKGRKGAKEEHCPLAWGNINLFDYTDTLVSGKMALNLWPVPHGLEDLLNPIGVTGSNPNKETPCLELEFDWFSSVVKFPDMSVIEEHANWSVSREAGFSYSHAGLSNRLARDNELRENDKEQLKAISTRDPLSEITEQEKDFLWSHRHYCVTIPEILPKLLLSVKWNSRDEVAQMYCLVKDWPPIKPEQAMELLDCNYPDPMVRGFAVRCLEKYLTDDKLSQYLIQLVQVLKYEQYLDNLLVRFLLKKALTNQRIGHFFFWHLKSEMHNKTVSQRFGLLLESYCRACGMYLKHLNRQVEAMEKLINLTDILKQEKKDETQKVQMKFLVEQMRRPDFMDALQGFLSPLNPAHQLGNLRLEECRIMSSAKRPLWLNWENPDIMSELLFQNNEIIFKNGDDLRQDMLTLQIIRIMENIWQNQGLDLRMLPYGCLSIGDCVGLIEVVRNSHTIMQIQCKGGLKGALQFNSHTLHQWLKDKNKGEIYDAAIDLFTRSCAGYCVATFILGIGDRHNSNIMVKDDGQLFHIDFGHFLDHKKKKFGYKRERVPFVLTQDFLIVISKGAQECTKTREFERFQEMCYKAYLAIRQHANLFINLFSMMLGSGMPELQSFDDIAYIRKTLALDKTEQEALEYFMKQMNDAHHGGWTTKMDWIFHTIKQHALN
T1 sequence (P27986 whole entry partner): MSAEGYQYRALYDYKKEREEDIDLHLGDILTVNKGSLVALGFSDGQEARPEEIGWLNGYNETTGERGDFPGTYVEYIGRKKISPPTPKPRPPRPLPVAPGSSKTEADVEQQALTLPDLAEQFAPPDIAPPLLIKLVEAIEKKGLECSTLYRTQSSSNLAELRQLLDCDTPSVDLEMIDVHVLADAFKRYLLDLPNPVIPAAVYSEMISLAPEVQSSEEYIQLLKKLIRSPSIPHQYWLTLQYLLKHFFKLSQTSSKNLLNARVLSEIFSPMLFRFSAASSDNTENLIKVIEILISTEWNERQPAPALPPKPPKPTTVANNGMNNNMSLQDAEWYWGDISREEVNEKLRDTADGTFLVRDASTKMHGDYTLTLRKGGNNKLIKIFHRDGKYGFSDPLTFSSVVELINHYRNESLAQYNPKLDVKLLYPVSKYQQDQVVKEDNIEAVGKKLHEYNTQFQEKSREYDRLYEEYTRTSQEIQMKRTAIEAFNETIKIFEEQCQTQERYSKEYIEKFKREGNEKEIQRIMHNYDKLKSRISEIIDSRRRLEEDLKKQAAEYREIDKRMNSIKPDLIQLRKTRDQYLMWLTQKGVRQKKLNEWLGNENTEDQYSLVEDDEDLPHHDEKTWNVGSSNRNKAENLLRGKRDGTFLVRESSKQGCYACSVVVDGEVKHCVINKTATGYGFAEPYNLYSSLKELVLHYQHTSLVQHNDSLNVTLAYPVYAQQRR
Assay: ADP-Glo luminescent lipid kinase assay, PI3Kα
Type: biochemical
Settings: recombinant enzyme 30 ng, 10 μM ATP, 30 min, room temperature; standard error (SE)
Method: (§1) All the synthesized compounds were then tested in vitro for their ability to inhibit the kinase activity of the PI3Kα, PI3Kβ, PI3Kγ, and PI3Kδ isoforms in a luminescent kinase assay (ADP-GloTM kinase assay) using purified, recombinant human enzymes and ATP. IC50 values were subsequently determined.
(§2) To evaluate the ability of each compound of formula (9a–h) to inhibit the lipid kinase activity of each PI3K isoform, 30 ng of PI3Kα, β, γ, and δ recombinant protein (purchased from JenaBioscience—Jena, Germany; PI3Kα #PR-335, PI3Kβ #PR-344, PI3Kγ #PR-343, PI3Kδ #PR-345) were incubated with at least five different concentrations (from 0.016 to 10 µM) of the compounds (9a–h). The phosphorylation reaction was then started by adding 10 μM of ATP, and 10 µg of lipid micelles containing the appropriate substrate phosphatidylinositol and the phosphatidylserine.
(§3) After 30 min of incubation (1 h for PI3Kβ recombinant protein) at room temperature, the reaction was stopped, and the amount of ADP metabolite was measured with a luminescent kinase assay, ADP-GloTM Kinase Assay (purchased from Promega—USA #V9101). The luminescent signal positively correlated with the formed ADP and, therefore, with the kinase activity. The percentage of kinase activity was calculated over the control samples, containing only dimethyl sulfoxide (DMSO). To derive the IC50 values for each assayed compound (9a–h), all data were plotted on a dose response curve (Graph Pad Software) and the IC50 was calculated by using the nonlinear regression fit (equation (log agonist) vs. response—Sigmoidal dose response). The IC50 was representative of two different experiments performed in triplicate.
With `COc1ccc(-c2cc(N3CCOCC3)nc(-c3cccc(O)c3)c2C#N)cc1` [Compound 9c] the IC50 was 1.79 µM.
`Cc1cc(N2CCOCC2)nc(-c2cccc(O)c2)c1C#N` [Compound 10, 2-(3-Hydroxyphenyl)-6-morpholino-4-methylnicotinonitrile] showed an IC50 of 1.18 µM.
Compound `COc1ccc(-c2cc(N3CCOCC3)nc(-c3cccc(O)c3)c2C#N)cc1OC` [Compound 9e] has an IC50 of 0.83 µM.
In the case of `Cc1ccc(-c2cc(N3CCOCC3)nc(-c3cccc(O)c3)c2C#N)cc1C` [Compound 9f], the IC50 is reported as > 10 µM.
`N#Cc1c(-c2ccc(Oc3ccccc3)cc2)cc(N2CCOCC2)nc1-c1cccc(O)c1` [Compound 9b] gave an IC50 of 0.63 µM.
For `N#Cc1c(-c2ccccc2)cc(N2CCOCC2)nc1-c1cccc(O)c1` [Compound 9a], the IC50 was 0.13 µM.
Work on `N#Cc1c(-c2ccncc2)cc(N2CCOCC2)nc1-c1cccc(O)c1` [Compound 9g] yielded an IC50 of 1.23 µM.
Compound `COc1cccc(-c2cc(N3CCOCC3)nc(-c3cccc(O)c3)c2C#N)c1` [Compound 9d] has an IC50 of 0.63 µM.
Compound `N#Cc1c(-c2cccnc2)cc(N2CCOCC2)nc1-c1cccc(O)c1` [Compound 9h] has an IC50 of 0.98 µM.

Molecular target: T2, PI3Kβ (Homo sapiens, UniProt P42338)
T2 construct: purchased JenaBioscience PR-344
T2 sequence (P42338 whole entry): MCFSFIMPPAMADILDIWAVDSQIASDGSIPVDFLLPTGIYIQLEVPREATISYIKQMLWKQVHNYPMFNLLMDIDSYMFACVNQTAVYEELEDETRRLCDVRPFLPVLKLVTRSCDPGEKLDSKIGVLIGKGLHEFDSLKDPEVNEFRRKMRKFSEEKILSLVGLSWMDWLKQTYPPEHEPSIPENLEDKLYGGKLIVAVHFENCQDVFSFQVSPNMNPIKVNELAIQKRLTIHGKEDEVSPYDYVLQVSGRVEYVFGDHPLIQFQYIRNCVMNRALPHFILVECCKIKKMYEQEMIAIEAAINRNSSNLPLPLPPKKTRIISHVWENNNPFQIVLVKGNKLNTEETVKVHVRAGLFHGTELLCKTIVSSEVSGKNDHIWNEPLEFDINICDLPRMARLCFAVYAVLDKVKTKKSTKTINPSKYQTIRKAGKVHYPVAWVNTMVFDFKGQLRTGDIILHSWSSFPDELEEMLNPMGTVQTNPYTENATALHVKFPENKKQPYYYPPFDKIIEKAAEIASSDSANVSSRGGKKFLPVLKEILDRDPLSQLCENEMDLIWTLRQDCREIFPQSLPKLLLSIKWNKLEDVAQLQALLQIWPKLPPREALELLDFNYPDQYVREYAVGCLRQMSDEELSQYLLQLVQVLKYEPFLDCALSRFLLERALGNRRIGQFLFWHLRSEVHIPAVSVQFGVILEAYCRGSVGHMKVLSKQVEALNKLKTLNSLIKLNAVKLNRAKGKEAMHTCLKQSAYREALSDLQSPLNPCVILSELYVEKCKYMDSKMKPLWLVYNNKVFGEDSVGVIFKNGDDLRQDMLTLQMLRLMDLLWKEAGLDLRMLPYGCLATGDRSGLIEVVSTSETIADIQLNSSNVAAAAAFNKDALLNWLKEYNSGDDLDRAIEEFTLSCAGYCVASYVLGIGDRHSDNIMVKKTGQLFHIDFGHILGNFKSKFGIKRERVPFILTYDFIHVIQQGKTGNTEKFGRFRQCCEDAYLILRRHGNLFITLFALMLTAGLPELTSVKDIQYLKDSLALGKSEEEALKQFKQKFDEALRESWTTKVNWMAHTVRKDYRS
T2 sequence (P27986 whole entry partner): as the sequence (P27986 whole entry partner) above
Assay: ADP-Glo luminescent lipid kinase assay, PI3Kβ
Type: biochemical
Settings: recombinant enzyme 30 ng, 10 μM ATP, 1 h, room temperature; standard error (SE)
Method: as §1, §2, §3
With `COc1ccc(-c2cc(N3CCOCC3)nc(-c3cccc(O)c3)c2C#N)cc1` [Compound 9c] the IC50 was > 10 µM.
For `Cc1cc(N2CCOCC2)nc(-c2cccc(O)c2)c1C#N` [Compound 10, 2-(3-Hydroxyphenyl)-6-morpholino-4-methylnicotinonitrile], the IC50 was 1.55 µM.
With `COc1ccc(-c2cc(N3CCOCC3)nc(-c3cccc(O)c3)c2C#N)cc1OC` [Compound 9e] the IC50 was 6.48 µM.
For `Cc1ccc(-c2cc(N3CCOCC3)nc(-c3cccc(O)c3)c2C#N)cc1C` [Compound 9f], the IC50 was > 10 µM.
For `N#Cc1c(-c2ccc(Oc3ccccc3)cc2)cc(N2CCOCC2)nc1-c1cccc(O)c1` [Compound 9b], the IC50 was > 10 µM.
In the case of `N#Cc1c(-c2ccccc2)cc(N2CCOCC2)nc1-c1cccc(O)c1` [Compound 9a], the IC50 is reported as 1.99 µM.
With `N#Cc1c(-c2ccncc2)cc(N2CCOCC2)nc1-c1cccc(O)c1` [Compound 9g] the IC50 was > 10 µM.
`COc1cccc(-c2cc(N3CCOCC3)nc(-c3cccc(O)c3)c2C#N)c1` [Compound 9d] gave an IC50 of 2.34 µM.
For `N#Cc1c(-c2cccnc2)cc(N2CCOCC2)nc1-c1cccc(O)c1` [Compound 9h], the IC50 was > 10 µM.

Molecular target: T3, PI3Kγ (Homo sapiens, UniProt P48736)
T3 construct: purchased JenaBioscience PR-343
T3 sequence (P48736 whole entry): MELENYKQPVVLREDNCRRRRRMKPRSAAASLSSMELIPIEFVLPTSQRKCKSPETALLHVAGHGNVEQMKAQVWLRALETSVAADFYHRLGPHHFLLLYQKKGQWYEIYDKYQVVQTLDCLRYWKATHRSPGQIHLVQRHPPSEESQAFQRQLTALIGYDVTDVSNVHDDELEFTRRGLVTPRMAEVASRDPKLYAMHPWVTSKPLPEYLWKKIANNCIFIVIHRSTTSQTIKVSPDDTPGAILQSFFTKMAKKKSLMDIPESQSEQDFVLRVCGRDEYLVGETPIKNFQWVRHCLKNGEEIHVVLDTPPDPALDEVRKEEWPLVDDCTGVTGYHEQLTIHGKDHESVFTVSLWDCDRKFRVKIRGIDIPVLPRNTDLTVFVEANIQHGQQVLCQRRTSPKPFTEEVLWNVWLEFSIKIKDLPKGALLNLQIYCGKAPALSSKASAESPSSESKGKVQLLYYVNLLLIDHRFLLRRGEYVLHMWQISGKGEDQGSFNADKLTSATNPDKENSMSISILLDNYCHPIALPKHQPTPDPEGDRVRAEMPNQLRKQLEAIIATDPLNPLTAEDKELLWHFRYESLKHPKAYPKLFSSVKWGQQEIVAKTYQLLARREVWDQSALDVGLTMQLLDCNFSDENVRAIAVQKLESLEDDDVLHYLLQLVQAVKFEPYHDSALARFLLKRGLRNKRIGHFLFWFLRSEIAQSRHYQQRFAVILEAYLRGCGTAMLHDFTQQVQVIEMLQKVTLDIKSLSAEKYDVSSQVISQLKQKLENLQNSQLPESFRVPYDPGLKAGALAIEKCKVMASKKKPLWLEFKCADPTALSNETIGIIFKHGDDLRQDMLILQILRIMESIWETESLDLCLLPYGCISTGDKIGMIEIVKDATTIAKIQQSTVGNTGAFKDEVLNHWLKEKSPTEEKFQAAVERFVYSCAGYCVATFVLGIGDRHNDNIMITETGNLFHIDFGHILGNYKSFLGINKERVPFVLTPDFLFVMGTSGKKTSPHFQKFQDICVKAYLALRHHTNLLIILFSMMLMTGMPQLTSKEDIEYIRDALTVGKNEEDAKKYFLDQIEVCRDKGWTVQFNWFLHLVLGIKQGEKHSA
Assay: ADP-Glo luminescent lipid kinase assay, PI3Kγ
Type: biochemical
Settings: recombinant enzyme 30 ng, 10 μM ATP, 30 min, room temperature; standard error (SE)
Method: as §1, §2, §3
For `COc1ccc(-c2cc(N3CCOCC3)nc(-c3cccc(O)c3)c2C#N)cc1` [Compound 9c], the IC50 was 2.18 µM.
For `Cc1cc(N2CCOCC2)nc(-c2cccc(O)c2)c1C#N` [Compound 10, 2-(3-Hydroxyphenyl)-6-morpholino-4-methylnicotinonitrile], the IC50 was 1.05 µM.
Work on `COc1ccc(-c2cc(N3CCOCC3)nc(-c3cccc(O)c3)c2C#N)cc1OC` [Compound 9e] yielded an IC50 of 2.91 µM.
`Cc1ccc(-c2cc(N3CCOCC3)nc(-c3cccc(O)c3)c2C#N)cc1C` [Compound 9f] showed an IC50 of 4.43 µM.
In the case of `N#Cc1c(-c2ccc(Oc3ccccc3)cc2)cc(N2CCOCC2)nc1-c1cccc(O)c1` [Compound 9b], the IC50 is reported as > 10 µM.
In the case of `N#Cc1c(-c2ccccc2)cc(N2CCOCC2)nc1-c1cccc(O)c1` [Compound 9a], the IC50 is reported as > 10 µM.
In the case of `N#Cc1c(-c2ccncc2)cc(N2CCOCC2)nc1-c1cccc(O)c1` [Compound 9g], the IC50 is reported as 1.56 µM.
With `COc1cccc(-c2cc(N3CCOCC3)nc(-c3cccc(O)c3)c2C#N)c1` [Compound 9d] the IC50 was 1.64 µM.
Work on `N#Cc1c(-c2cccnc2)cc(N2CCOCC2)nc1-c1cccc(O)c1` [Compound 9h] yielded an IC50 of 2.43 µM.

Molecular target: T4, PI3Kδ (Homo sapiens, UniProt O00329)
T4 construct: purchased JenaBioscience PR-345
T4 sequence (O00329 whole entry): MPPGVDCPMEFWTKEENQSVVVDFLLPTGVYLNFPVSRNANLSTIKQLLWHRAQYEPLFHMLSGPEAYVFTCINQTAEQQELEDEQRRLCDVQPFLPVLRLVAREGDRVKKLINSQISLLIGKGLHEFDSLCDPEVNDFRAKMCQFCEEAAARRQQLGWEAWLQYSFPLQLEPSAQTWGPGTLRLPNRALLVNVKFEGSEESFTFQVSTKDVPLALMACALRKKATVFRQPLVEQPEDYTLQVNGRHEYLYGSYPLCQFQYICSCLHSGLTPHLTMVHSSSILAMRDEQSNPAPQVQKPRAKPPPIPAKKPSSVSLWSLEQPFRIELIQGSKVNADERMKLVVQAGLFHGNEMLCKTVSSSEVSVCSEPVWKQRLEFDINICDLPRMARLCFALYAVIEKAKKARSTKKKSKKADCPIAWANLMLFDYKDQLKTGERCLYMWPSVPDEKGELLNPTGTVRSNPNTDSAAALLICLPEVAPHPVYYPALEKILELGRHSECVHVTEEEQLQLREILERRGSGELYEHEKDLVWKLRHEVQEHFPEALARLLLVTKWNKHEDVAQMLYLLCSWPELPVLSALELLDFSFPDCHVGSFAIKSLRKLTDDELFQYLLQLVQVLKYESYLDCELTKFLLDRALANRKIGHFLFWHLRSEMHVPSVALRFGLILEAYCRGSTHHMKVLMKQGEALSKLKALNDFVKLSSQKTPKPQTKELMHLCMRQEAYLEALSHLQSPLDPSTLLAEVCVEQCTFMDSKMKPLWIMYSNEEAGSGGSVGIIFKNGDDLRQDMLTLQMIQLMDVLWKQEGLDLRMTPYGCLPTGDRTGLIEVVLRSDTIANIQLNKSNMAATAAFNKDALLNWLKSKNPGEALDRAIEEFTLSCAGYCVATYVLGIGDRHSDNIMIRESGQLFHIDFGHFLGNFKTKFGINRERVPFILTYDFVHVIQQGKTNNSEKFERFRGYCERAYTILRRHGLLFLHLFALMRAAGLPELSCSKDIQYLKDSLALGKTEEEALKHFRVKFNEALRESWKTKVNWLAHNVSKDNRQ
T4 sequence (P27986 whole entry partner): as the sequence (P27986 whole entry partner) above
Assay: ADP-Glo luminescent lipid kinase assay, PI3Kδ
Type: biochemical
Settings: recombinant enzyme 30 ng, 10 μM ATP, 30 min, room temperature; standard error (SE)
Method: as §1, §2, §3
For `COc1ccc(-c2cc(N3CCOCC3)nc(-c3cccc(O)c3)c2C#N)cc1` [Compound 9c], the IC50 was 1.37 µM.
For `Cc1cc(N2CCOCC2)nc(-c2cccc(O)c2)c1C#N` [Compound 10, 2-(3-Hydroxyphenyl)-6-morpholino-4-methylnicotinonitrile], the IC50 was 0.42 µM.
For `COc1ccc(-c2cc(N3CCOCC3)nc(-c3cccc(O)c3)c2C#N)cc1OC` [Compound 9e], the IC50 was 0.9 µM.
`Cc1ccc(-c2cc(N3CCOCC3)nc(-c3cccc(O)c3)c2C#N)cc1C` [Compound 9f] gave an IC50 of 1.33 µM.
With `N#Cc1c(-c2ccc(Oc3ccccc3)cc2)cc(N2CCOCC2)nc1-c1cccc(O)c1` [Compound 9b] the IC50 was > 10 µM.
Work on `N#Cc1c(-c2ccccc2)cc(N2CCOCC2)nc1-c1cccc(O)c1` [Compound 9a] yielded an IC50 of 1.22 µM.
With `N#Cc1c(-c2ccncc2)cc(N2CCOCC2)nc1-c1cccc(O)c1` [Compound 9g] the IC50 was 0.85 µM.
`COc1cccc(-c2cc(N3CCOCC3)nc(-c3cccc(O)c3)c2C#N)c1` [Compound 9d] gave an IC50 of 1.09 µM.
With `N#Cc1c(-c2cccnc2)cc(N2CCOCC2)nc1-c1cccc(O)c1` [Compound 9h] the IC50 was 0.71 µM.

System: PI3Kα signaling pathway
Assay: Cell-based assay: P-Akt in insulin-stimulated NIH3T3 cells (Western blot)
Settings: Mus musculus, 1.5 h pre-treatment, 5 min stimulation with 1 μM insulin, SE ± 0.6, read-out: IC50, residual P-Akt
Method: Subsequently, compound 9b was analyzed on cell-based assay in order to evaluate its ability to inhibit the PI3Kα signaling pathway on cells. It is well established that insulin signaling is mostly regulated by PI3Kα [29]. The activated insulin receptor triggers PI3Kα activity mainly by binding and phosphorylating adaptor proteins of the IRS (insulin receptor substrate) family. Once activated, PI3Kα produces the PtdIns(3,4,5)P3 lipid product, which in turn mediates the activation of downstream effectors such as Akt. Thus, phosphorylation of Akt results as a key event of the PI3Kα activation. […] A dose response curve and an IC50 value were determined.
NIH3T3 cells were cultured in […] (DMEM) (GIBCO-Thermo Fisher Scientific Inc., Waltham, MA, USA) supplemented with 10% Fetal Bovine Serum (FBS) (GIBCO-Thermo Fisher Scientific Inc.), 100 units/mL penicillin (GIBCO-Thermo Fisher Scientific Inc.), and 100 μg/mL streptomycin (GIBCO- Thermo Fisher Scientific Inc.). […] The P-Akt production is detected by Western blot analysis and quantified with ChemiDoc™ XRS system. From the absolute values, a percentage of residual P-Akt is calculated for each inhibitor concentration by using the control vehicle as 100%. […]
With `N#Cc1c(-c2ccc(Oc3ccccc3)cc2)cc(N2CCOCC2)nc1-c1cccc(O)c1` [Compound 9b] the IC50 was 2.8 µM.

System: not given
Assay: not given
Settings: not given
For `COc1ccc(-c2cc(N3CCOCC3)nc(-c3cccc(O)c3)c2C#N)cc1` [Compound 9c], the melting point was 216 to 217 °C.
In the case of `Cc1cc(N2CCOCC2)nc(-c2cccc(O)c2)c1C#N` [Compound 10, 2-(3-Hydroxyphenyl)-6-morpholino-4-methylnicotinonitrile], the melting point is reported as 195 to 197 °C.
For `COc1ccc(-c2cc(N3CCOCC3)nc(-c3cccc(O)c3)c2C#N)cc1OC` [Compound 9e], the melting point was 142 to 144 °C.
For `Cc1ccc(-c2cc(N3CCOCC3)nc(-c3cccc(O)c3)c2C#N)cc1C` [Compound 9f], the melting point was 117 to 120 °C (dec.).
`N#Cc1c(-c2ccc(Oc3ccccc3)cc2)cc(N2CCOCC2)nc1-c1cccc(O)c1` [Compound 9b] showed a melting point of 240 to 242 °C.
In the case of `N#Cc1c(-c2ccccc2)cc(N2CCOCC2)nc1-c1cccc(O)c1` [Compound 9a], the melting point is reported as 221 to 223 °C (dec.).
In the case of `N#Cc1c(-c2ccncc2)cc(N2CCOCC2)nc1-c1cccc(O)c1` [Compound 9g], the melting point is reported as 290 to 292 °C (dec.).
For `COc1cccc(-c2cc(N3CCOCC3)nc(-c3cccc(O)c3)c2C#N)c1` [Compound 9d], the melting point was 208 to 209 °C (dec.).
For `N#Cc1c(-c2cccnc2)cc(N2CCOCC2)nc1-c1cccc(O)c1` [Compound 9h], the melting point was 239 to 242 °C (dec.).
